In paper PMC6218659, “Structures of DPAGT1 Explain Glycosylation Disease Mechanisms and Advance TB Antibiotic Design” (Cell, 2018):
Values after ≈ are worked out from the molar mass of the structure shown. Where two headings read alike, the source gives them in different places.

Tests used:
B. subtilis EC1524 = assay: Micro-broth dilution and drop plate antimicrobial susceptibility test; format: cell-based, Bacillus subtilis
Protocol: (§1) In a sterile 96-well plate, serial dilutions were made with the test substance to final volume of 50 μl. Inoculum was then prepared in Mueller-Hinton broth to 0.5 McFarland and diluted before adding 50 μl to the well to make ∼1x10^5 CFU/ml. The culture plate was incubated at 35 °C for 20-24 hrs. A positive growth control and sterility wells were also prepared along with the culture wells. Absorbance at OD600 was taken using BMG Labtech SPECTROstar Omega spectrophotometer. MIC is determined by the lowest concentration without growth. IC50 is determined from plotting a dose-response curve, see Data Analysis below. To determine the MBC, using a multi-channel pipette, 1 μl of culture broth was taken from the same 96-well microdilution growth plate and carefully inoculated on surface of MH agar plate. The plate is then incubated for additional 20 hrs. at 35 °C. The MBC value is the lowest concentration without observed growth on the agar.

B. cereus ATCC11778 = assay: as above; format: cell-based, Bacillus cereus
Protocol: as §1

E. coli ATCC25922 = assay: as above; format: cell-based; details: Escherichia coli
Protocol: as §1

P. aeruginosa ATCC27853 = assay: as above; format: cell-based; details: Pseudomonas aeruginosa
Protocol: as §1

S. aureus ATCC29219 = assay: as above; format: cell-based; details: Staphylococcus aureus
Protocol: as §1

Mtb H37Rv ATCC27294 = assay: Minimum inhibitory concentrations testing against Mtb; format: cell-based, Mycobacterium tuberculosis; details: for MIC: Mycobacterium tuberculosis, 168 h
HEK293 cells = assay: Cell proliferation assay (MTS); format: cell-based, human
Protocol: (§2) In sterile 96-well plate, each well was seeded with ∼1x10^5 cells. The cells are then grown confluent overnight in 100 μl DMEM with 10% FBS. The medium is replenished with DMEM with 2% FBS and added vehicle control or test substance the next day. For test substance in methanol, stock was added to 25 μl of DMEM with 2% FBS or PBS and placed in the laminar flow hood to let the methanol evaporate (about 1-3 hrs). Once the methanol has evaporated, DMEM with 2% FBS was added to final volume of 100 μl of desired test concentration. […] Cells are grown for additional 24 hrs. The cell viability was determined by using Promega CellTiter 96^© AQueous One Solution Cell Proliferation Assay (3-(4,5-dimethylthiazol-2-yl)-5-(3-carboxymethoxyphenyl)-2-(4-sulfophenyl)-2H-tetrazolium, inner salt; MTS) System following the manufacture protocol.

HepG2 cells = assay: Cell proliferation assay (MTS); format: cell-based, human
Protocol: as §2

Raji cells = assay: Cell proliferation assay (MTS); format: cell-based, human; details: 24 hrs
Protocol: as §2

[1] = test system: Mtb-infected J774A.1 macrophages; assay: Efficacy against Mtb growing in infected macrophages; details: J774A.1 macrophages treated 3 or 7 days
DPAGT1 = target: T1, DPAGT1 (Homo sapiens, UniProt Q9H3H5); assay: Radiolabeled substrate enzyme activity assay; format: biochemical, H. sapiens; details: purified DPAGT1 enzyme, Figure 6F
T1 construct: H. sapiens DPAGT1 (1-408, N-terminal 6 x HIS tag, TEV cleavage site); 6xHis purification tag with TEV site (N, cleaved yes); made in house; host or cells: Spodoptera frugiperda Sf9 insect cells (baculovirus)
T1 sequence (Q9H3H5 1-408): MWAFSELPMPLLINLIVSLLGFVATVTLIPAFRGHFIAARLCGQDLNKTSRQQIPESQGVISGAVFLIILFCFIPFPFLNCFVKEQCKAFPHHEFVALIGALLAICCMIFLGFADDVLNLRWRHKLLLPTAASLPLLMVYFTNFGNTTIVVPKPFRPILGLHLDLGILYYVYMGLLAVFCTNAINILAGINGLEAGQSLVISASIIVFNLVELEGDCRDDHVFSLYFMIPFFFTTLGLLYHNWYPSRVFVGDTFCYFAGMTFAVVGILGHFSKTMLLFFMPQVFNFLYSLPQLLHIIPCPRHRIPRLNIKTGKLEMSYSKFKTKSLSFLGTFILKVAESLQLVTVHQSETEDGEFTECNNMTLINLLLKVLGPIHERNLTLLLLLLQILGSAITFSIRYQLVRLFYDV
Protocol: 2 μl of 2 μM DPAGT1 WT or mutant proteins in GFB buffer supplemented with 5mM extra MgCl2, 1% OGNG/CHS/cardiolipin and dolichyl monophosphate was combined with 2 μl of UDP-N-acetyl [1-14C] […] The reaction was terminated by the addition of 6 μl of 100% methanol and immediately transferred onto ice. 1 μl of sample was spotted onto a silica coated TLC plate in triplicate and run with a mobile phase consisting of chloroform, methanol, and water at a 65:25:4 ratio respectively. After the run, the TLC plate was dried thoroughly, wrapped in cling film, incubated with a phosphor imaging substrate for 4 days, then phosphor imaged using a Biorad. The pixel density of the spots corresponding to the hydrophobic product was divided by combined pixel density of the product and the substrate and multiplied by the known concentration of substrate added to ascertain the amount of product formed.

[2] = minimal lethal dose / MIC, 800 μg mL-1 used for >400
[3] = MTS cell proliferation assay, 24 hrs, highest concentration 400 µg mL-1
[4] = serial 2-fold dilutions (Table S6)

Work on `CCCCCCCCCCC(=O)N[C@H]1[C@H](O[C@H]2O[C@H](CO)[C@@H](O)[C@H](O)[C@H]2NC(=O)CCCCCCCCCC)O[C@H](C[C@@H](O)[C@H]2O[C@@H](n3ccc(=O)[nH]c3=O)[C@H](O)[C@@H]2O)[C@H](O)[C@@H]1O` [TUN-11,11, Di-N-undecanoyl-tunicamycin] yielded an IC50 (B. subtilis EC1524; Bacillus subtilis, EC1524) of 0.85 ± 0.28 µg/mL (≈ 0.941 µM), an MBC (B. subtilis EC1524; Bacillus subtilis, EC1524) of over 1.56 µg/mL and an MIC (B. subtilis EC1524; Bacillus subtilis, EC1524) of 1.3 ± 0.45 µg/mL (≈ 1.44 µM). The MIC (B. subtilis EC1524; Bacillus subtilis, EC1524, read-out: Minimal Inhibitory Concentration, B. subtilis EC1524) was 1.56 µg/mL (≈ 1.73 µM), the “Relative Therapeutic Index (RTI), B. subtilis EC1524” value (B. subtilis EC1524; [2]) was 513 and the IC50 (B. cereus ATCC11778; Bacillus cereus, ATCC11778) was 0.088 µg/mL (≈ 0.0974 µM). It also gave an MBC (B. cereus ATCC11778; Bacillus cereus, ATCC11778) of over 25 µg/mL, an MIC (B. cereus ATCC11778; Bacillus cereus, ATCC11778) of 0.65 ± 0.23 µg/mL (≈ 0.72 µM) and an MIC (B. cereus ATCC11778; Bacillus cereus, ATCC 11778 / NRRL11778, read-out: Minimal Inhibitory Concentration, B. cereus NRRL 11778) of 0.78 µg/mL (≈ 0.864 µM). The “Relative Therapeutic Index (RTI), B. cereus NRRL 11778” value (B. cereus ATCC11778; [2]) was 1026, the IC50 (E. coli ATCC25922) was 131 µg/mL (≈ 145 µM) and the MBC (E. coli ATCC25922) was 400 µg/mL (≈ 443 µM). The MIC (E. coli ATCC25922) was 330 ± 120 µg/mL (≈ 365 µM), the IC50 (P. aeruginosa ATCC27853) was 63.2 µg/mL (≈ 69.9 µM) and the MBC (P. aeruginosa ATCC27853) was 400 µg/mL (≈ 443 µM). It also gave an MIC (P. aeruginosa ATCC27853) of 83 ± 29 µg/mL (≈ 91.9 µM), an IC50 (S. aureus ATCC29219) of 58 µg/mL (≈ 64.3 µM) and an MBC (S. aureus ATCC29219) of 400 µg/mL (≈ 443 µM). For the same molecule, the MIC (S. aureus ATCC29219) was 170 ± 60 µg/mL (≈ 188 µM), the MIC (Mtb H37Rv ATCC27294; read-out: 1-week MIC in 7H9/ADC/Tw) was 4.1 ± 2.2 µg/mL (≈ 4.54 µM) and the MIC (Mtb H37Rv ATCC27294; read-out: 1-week MIC in GAST/Fe) was 1.6 ± 1.6 µg/mL (≈ 1.77 µM). The MIC (Mtb H37Rv ATCC27294; read-out: Minimal Inhibitory Concentration, Mtb H37RV a) was 4.1 µg/mL (≈ 4.54 µM), the MIC (Mtb H37Rv ATCC27294; read-out: Minimal Inhibitory Concentration, Mtb H37RV b) was 1.6 µg/mL (≈ 1.77 µM) and the “Relative Therapeutic Index (RTI), Mtb H37RV a” value (Mtb H37Rv ATCC27294; minimal lethal dose / MIC, 7H9/ADC/Tw, 800 μg mL-1 used for >400) was 195. The “Relative Therapeutic Index (RTI), Mtb H37RV b” value (Mtb H37Rv ATCC27294; minimal lethal dose / MIC, GAST/Fe, 800 μg mL-1 used for >400) was 500, the “LD50 values, HEK293” value (HEK293 cells; [3]) was “N/A (N/A = not available. No or low cytotoxicity observed at highest, saturating concentration tested (400 µg mL-1))” and the “Minimal Lethal Dose, HEK 293” value (HEK293 cells; [4]) was over 400 µg/mL. The “LD50 values, HepG2” value (HepG2 cells; [3]) was “N/A (N/A = not available. No or low cytotoxicity observed at highest, saturating concentration tested (400 µg mL-1))”, the “Minimal Lethal Dose, HepG2” value (HepG2 cells; [4]) was over 400 µg/mL and the “LD50 values, Raji” value (Raji cells) was 103.65 ± 34.34 µg/mL. For the same molecule, the “reduction of intracellular bacterial burdens” value ([1]; 1 × MIC) was 1 logs and the “reduction of intracellular bacterial burdens” value ([1]; 10 × MIC) was 2 logs.

With `CCCCCCCC(=O)N[C@H]1[C@H](O[C@H]2O[C@H](CO)[C@@H](O)[C@H](O)[C@H]2NC(C)=O)O[C@H](C[C@@H](O)[C@H]2O[C@@H](n3ccc(=O)[nH]c3=O)[C@H](O)[C@@H]2O)[C@H](O)[C@@H]1O` [TUN-8,Ac, N-Octanoyl-N’-acetyl tunicamycin] the “effect on DPAGT1 catalytic activity” value (DPAGT1) was “restored inhibitory activity”.
